Values after ≈ are worked out from the molar mass of the structure shown. Read-outs that look alike come from different tables or passages of the source.
Experiments:
[1] = molecular target: T1, human NK1 receptor (hNK1) (Homo sapiens, UniProt P25103); assay: Radioligand competition binding, [3H]-Substance P, hNK1
T1 construct: expressed in transfected cells

[2] = Octanol/saline distribution (logD7.4); type: physicochemical
Protocol: HEPES buffer (0.05 M HEPES buffer in 0.1 M NaCl, pH 7.4, 500 μL) was added to 2 mg of compound and mixed with 500 μL of 1-octanol. The sample was shaken at r.t. for 12 h to allow equilibrating. The sample was centrifuged at 6500 rpm in a VanGuard V6500 (GlaxoSmithKline, Research Triangle Park, N.C.) for 15 min. The layers were separated and each layer was centrifuged once again. The compound concentrations of obtained layers were analyzed by HPLC (30-70% of acetonitrile containing 0.1% TFA within 20 min and up to 95% within additional 5 min, 1 mL/min, 230 nm, Vydac 218TP104 C-18 column). The logarithm of 1-octanol/saline distribution (logD7.4) was calculated as the ratio of compound concentration in the 1-octanol and saline phases.
Octanol/saline distribution (logD7.4) (Yamamoto, 2007, J. Med. Chem., submitted). HEPES buffer (0.05 M HEPES buffer in 0.1 M NaCl, pH 7.4, 500 μL) was added to 2 mg of compound and mixed with 500 μL of 1-octanol. The sample was shaken at r.t. for 12 h to allow equilibrating. The sample was centrifuged at 6500 rpm in a VanGuard V6500 (GlaxoSmithKline, Research Triangle Park, N.C.) for 15 min. The layers were separated and each layer was centrifuged once again. The compound concentrations in the obtained layers were analyzed by HPLC (30-70% of acetonitrile containing 0.1% TFA within 20 min and up to 95% within additional 5 min, 1 mL/min, 230 nm, Vydac 218TP104 C-18 column). The logarithm of 1-octanol/saline distribution (logD7.4) was calculated as the ratio of compound concentration in the 1-octanol and saline phases.

[3] = molecular target: T2, Substance P receptors (guinea pig NK1) (Cavia porcellus, UniProt P30547); assay: Guinea pig isolated ileum (GPI) assay with substance P stimulation in presence of 1 μM naloxone
T2 construct: from tissue; host or cells: guinea pig (Hartley) ileum LMMP, 1 μM naloxone present

rat NK1 (rNK1) receptor = molecular target: T3, rat NK1 (rNK1) receptor (Rattus norvegicus, UniProt P14600); assay: Radioligand competition binding, [3H]substance P, rNK1/CHO membranes; conditions: for IC50: LogIC50, rNK1, [3H]Substance P, Table 6, logarithm of IC50 (negative), CHO cell membranes
T3 construct: expressed in transfected cells; host or cells: CHO (rNK-1/CHO cell line from Dr. James Krause)

δ opioid receptors (MVD) = molecular target: T4, δ opioid receptors (MVD) (Mus musculus, UniProt P32300); assay: Mouse isolated vas deferens (MVD) assay, opioid agonist
T4 construct: from tissue; host or cells: mouse (ICR) isolated vas deferens

[4] = Solubility in HEPES buffer; type: physicochemical
Protocol: Solubility. HEPES buffer (0.05 M HEPES buffer in 0.1 M NaCl, pH 7.4, 500 μL) was added to 1 mg of compound. The sample was vortexed for 30 sec, sonicated for 5 min, shaken at r.t. for 2 h, and then allowed to be stayed overnight to equilibration. The sample was filtrated with an Acrodisc Syringe Filter (13 mm, 0.45 μm pore, PTFE membrane, Pall Life Sciences, East Hills, N.Y.).

μ opioid receptors (GPI) = assay: Guinea pig isolated ileum (GPI) assay, opioid agonist;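 note: inhibition of electrically evoked contractions (0.1 Hz, 0.4 msec, supramaximal voltage) in organ baths at 37 °C, contraction height 3 min after each cumulative dose versus the 1 min before dosing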
[5] = molecular target: T5, rat μ opioid receptors (rMOR) (Rattus norvegicus, UniProt P33535); assay: biochemical; type: biochemical
T5 construct: expressed in transfected cells; host or cells: HN9.10 neuroblastoma cell line, pCDNA3, neomycin-selected clones

[6] = molecular target: T6, human δ opioid receptors (hDOR) (Homo sapiens, UniProt P41143); assay: [35S]GTP-γ-S binding assay, hDOR; type: biochemical
T6 construct: expressed in transfected cells; host or cells: HN9.10 neuroblastoma cell line, pCDNA3, neomycin-selected clones

[7] = molecular target: T5, rat μ opioid receptors (rMOR); assay: Radioligand competition binding, [3H]DAMGO, rMOR membranes
MOR = MOR (Homo sapiens, UniProt P35372); conditions: previous studies; read-out: Affinity (Ki in nM), MOR; cited from earlier work
rNK1 = rNK1 (Rattus norvegicus, UniProt P14600); conditions: previous studies; read-out: Affinity (Ki in nM), rNK1; cited from earlier work
[8] = Table 39, read-out: Affinity hNK1 (Ki; nM)
[9] = read-out: Ki (nM), hNK1, [3H]Substance P, Table 6, CHO cell membranes
[10] = 0.05 N HEPES buffer in 0.1 N NaCl
[11] = read-out: Inhibition % at 1 μM, rNK1, [3H]Substance P
[12] = Table 39, read-out: GPI/LMMP opioid(mu) agonist (IC50; nM)
[13] = Table 24, read-out: GTP binding rMOR Emax (%)
[14] = Table 39, read-out: GTP binding rMOR Emax
[15] = read-out: GTP binding hDOR Emax
[16] = read-out: GTP binding hDOR Emax (%)
[17] = GPI/LMMP SP Antagonist (Ke; nM), Table 24

T6 sequence (P41143 whole entry): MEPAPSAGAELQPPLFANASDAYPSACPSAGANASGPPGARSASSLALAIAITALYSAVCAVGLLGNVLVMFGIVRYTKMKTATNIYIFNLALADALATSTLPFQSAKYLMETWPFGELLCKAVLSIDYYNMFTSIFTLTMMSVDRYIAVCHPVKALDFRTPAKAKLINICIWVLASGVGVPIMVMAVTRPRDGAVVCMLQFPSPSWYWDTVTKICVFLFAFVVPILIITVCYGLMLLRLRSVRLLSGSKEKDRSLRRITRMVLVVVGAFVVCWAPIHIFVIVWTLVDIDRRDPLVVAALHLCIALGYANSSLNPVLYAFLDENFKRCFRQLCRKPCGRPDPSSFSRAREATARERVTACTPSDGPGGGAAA
T4 sequence (P32300 whole entry): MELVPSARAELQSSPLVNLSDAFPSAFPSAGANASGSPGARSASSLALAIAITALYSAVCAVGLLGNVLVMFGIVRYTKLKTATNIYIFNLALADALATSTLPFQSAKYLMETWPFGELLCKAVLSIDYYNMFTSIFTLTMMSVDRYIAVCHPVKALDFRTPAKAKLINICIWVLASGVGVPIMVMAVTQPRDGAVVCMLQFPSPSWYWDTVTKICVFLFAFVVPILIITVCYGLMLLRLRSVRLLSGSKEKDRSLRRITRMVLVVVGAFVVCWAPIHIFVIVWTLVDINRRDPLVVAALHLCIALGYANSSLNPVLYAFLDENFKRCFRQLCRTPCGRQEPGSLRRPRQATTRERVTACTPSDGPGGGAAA
T2 sequence (P30547 whole entry): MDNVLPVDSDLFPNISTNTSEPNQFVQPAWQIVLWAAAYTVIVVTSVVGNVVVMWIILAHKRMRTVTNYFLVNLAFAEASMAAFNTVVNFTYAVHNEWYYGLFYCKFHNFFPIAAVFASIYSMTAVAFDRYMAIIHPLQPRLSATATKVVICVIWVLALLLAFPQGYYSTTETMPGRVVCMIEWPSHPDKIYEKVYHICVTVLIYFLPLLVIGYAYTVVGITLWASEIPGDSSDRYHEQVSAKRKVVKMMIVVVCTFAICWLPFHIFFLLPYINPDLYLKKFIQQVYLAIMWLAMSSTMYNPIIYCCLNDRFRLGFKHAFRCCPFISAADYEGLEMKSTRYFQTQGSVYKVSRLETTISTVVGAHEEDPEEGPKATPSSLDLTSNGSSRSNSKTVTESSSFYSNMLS
T1 sequence (P25103 whole entry): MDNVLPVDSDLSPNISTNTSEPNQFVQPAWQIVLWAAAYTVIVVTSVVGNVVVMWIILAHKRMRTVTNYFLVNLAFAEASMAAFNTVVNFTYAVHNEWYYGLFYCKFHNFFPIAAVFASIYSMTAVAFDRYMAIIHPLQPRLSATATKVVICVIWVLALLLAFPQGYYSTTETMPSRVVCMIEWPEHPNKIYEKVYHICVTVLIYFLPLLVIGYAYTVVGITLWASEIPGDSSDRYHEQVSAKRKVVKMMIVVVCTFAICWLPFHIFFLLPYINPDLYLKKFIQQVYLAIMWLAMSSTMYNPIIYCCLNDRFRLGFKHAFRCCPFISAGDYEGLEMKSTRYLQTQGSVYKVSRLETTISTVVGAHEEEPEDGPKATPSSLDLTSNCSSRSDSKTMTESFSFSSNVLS
T3 sequence (P14600 whole entry): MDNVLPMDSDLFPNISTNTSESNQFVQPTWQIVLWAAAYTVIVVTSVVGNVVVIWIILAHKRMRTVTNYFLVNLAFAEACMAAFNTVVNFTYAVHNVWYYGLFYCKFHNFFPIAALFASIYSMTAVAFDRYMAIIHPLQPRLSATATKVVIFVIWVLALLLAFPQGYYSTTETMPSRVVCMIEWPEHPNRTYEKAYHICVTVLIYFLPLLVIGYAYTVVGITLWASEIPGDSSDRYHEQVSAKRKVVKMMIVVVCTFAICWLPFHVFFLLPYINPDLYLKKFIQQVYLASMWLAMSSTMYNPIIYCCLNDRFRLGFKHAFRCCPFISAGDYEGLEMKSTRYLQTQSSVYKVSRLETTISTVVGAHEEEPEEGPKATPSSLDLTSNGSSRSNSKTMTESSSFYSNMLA
T5 sequence (P33535 whole entry): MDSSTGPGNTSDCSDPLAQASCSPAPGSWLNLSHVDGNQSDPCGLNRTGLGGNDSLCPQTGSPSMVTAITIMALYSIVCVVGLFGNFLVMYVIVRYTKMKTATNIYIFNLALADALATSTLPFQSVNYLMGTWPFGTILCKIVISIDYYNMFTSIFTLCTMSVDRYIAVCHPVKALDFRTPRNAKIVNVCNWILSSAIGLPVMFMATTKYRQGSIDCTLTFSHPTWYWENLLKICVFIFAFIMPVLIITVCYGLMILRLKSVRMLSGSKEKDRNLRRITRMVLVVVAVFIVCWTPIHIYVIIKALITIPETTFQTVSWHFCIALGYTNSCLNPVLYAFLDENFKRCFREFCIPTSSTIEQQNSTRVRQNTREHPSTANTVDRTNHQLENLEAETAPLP
rNK1, sequence (P14600 whole entry): as the sequence (P14600 whole entry) above
MOR, sequence (P35372 whole entry): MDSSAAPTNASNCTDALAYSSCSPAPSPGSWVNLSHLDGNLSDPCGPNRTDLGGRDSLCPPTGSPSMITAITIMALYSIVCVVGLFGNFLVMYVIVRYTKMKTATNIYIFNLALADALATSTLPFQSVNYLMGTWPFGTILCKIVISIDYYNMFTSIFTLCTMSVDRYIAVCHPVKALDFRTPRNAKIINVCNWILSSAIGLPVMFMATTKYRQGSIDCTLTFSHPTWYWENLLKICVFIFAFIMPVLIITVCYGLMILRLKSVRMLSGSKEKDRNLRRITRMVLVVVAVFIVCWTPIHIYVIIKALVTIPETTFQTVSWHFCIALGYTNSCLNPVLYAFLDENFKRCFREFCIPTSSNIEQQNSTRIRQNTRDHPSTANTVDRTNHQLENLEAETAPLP

## CC(C)C[C@H](NC(=O)[C@@H]1CCCN1C(=O)[C@H](Cc1ccccc1)NC(=O)CNC(=O)[C@@H](C)NC(=O)[C@@H](N)Cc1ccc(O)cc1)C(=O)N[C@@H](Cc1c[nH]c2ccccc12)C(=O)NCc1ccccc1 [TY008, H-Tyr-DAla-Gly-Phe-Pro-Leu-Trp-NH-Bzl]
[1]
  IC50: 0.0316 µM
[1]; [8]
  Ki: 14 nM
[1]; [9]
  Ki: 14 nM
[1]; read-out: Ki, hNK1
  Ki: 14 nM
[2]; [10]
  logD7.4: 3.3
[3]; GPI Ke vs rNK1 affinity
  species difference between the guinea pig and the rat (NK1): more than 40 fold
[3]; Substance P antagonist, GPI, Ke, in the presence of 1 μM naloxone
  Kb: 26 ± 3.9 nM
Rat NK1 (rNK1) receptor; [11]
  inhibition at 1 µM: 30 ± 9.9%
Rat NK1 (rNK1) receptor; read-out: inhibition at rNK1 receptor
  inhibition at 1 µM: 30%

## CC(C)C[C@H](NC(=O)[C@@H]1CCCN1C(=O)[C@H](Cc1ccccc1)NC(=O)CNC(=O)[C@@H](C)NC(=O)[C@@H](N)Cc1ccc(O)cc1)C(=O)N[C@@H](Cc1c[nH]c2ccccc12)C(=O)N(C)Cc1ccccc1 [TY010, H-Tyr-D-Ala-Gly-Phe-Pro-Leu-Trp-NMe-Bzl]
[1]
  IC50: 0.00316 µM
  Ki: 100 nM
[1]; read-out: Ki, hNK1
  Ki: 1.6 nM
[2]; [10]
  logD7.4: 3.5
Rat NK1 (rNK1) receptor; [11]
  inhibition at 1 µM: 33 ± 7.6%

## CC(C)C[C@H](NC(=O)[C@@H]1CCCN1C(=O)[C@H](Cc1ccccc1)NC(=O)CNC(=O)[C@@H](C)NC(=O)[C@@H](N)Cc1ccc(O)cc1)C(=O)N[C@@H](Cc1c[nH]c2ccccc12)C(=O)OCc1ccccc1 [TY011, H-Tyr-DAla-Gly-Phe-Pro-Leu-Trp-O-Bzl]
[1]
  IC50: 0.2 µM
[1]; read-out: Ki, hNK1
  Ki: 100 nM
[2]; [10]
  logD7.4: 3.8
Rat NK1 (rNK1) receptor
  IC50: 0.794 µM
Rat NK1 (rNK1) receptor; read-out: Ki, rNK1
  Ki: 270 nM

## CC(C)C[C@H](NC(=O)[C@@H]1CCCN1C(=O)[C@H](Cc1ccccc1)NC(=O)CNC(=O)[C@@H](C)NC(=O)[C@@H](N)Cc1ccc(O)cc1)C(=O)N[C@@H](Cc1c[nH]c2ccccc12)C(=O)NCc1cc(C(F)(F)F)cc(C(F)(F)F)c1 [TY012, H-Tyr-D-Ala-Gly-Phe-Pro-Leu-Trp-NH-3,5-Bzl(CF3)2]
[1]
  IC50: 0.00126 µM
[2]; [10]
  logD7.4: >4
Rat NK1 (rNK1) receptor
  IC50: 0.1 µM

## CC(C)C[C@H](NC(=O)[C@@H]1CCCN1C(=O)[C@H](Cc1ccccc1)NC(=O)CNC(=O)[C@@H](C)NC(=O)[C@@H](N)Cc1ccc(O)cc1)C(=O)N[C@@H](Cc1c[nH]c2ccccc12)C(=O)N(C)Cc1cc(C(F)(F)F)cc(C(F)(F)F)c1 [TY013, H-Tyr-D-Ala-Gly-Phe-Pro-Leu-Trp-NMe-3,5-Bzl(CF3)2]
[1]
  IC50: 0.00316 µM
  Ki: 6.1 nM
[1]; [8]
  Ki: 1.4 nM
[1]; [9]
  Ki: 1.4 nM
[2]; [10]
  logD7.4: >4
Rat NK1 (rNK1) receptor
  IC50: 0.02 µM

## CSCC[C@H](NC(=O)[C@H](Cc1ccccc1)NC(=O)CNC(=O)[C@@H](C)NC(=O)[C@@H](N)Cc1ccc(O)cc1)C(=O)N1CCC[C@H]1C(=O)N[C@@H](CC(C)C)C(=O)N[C@@H](Cc1c[nH]c2ccccc12)C(=O)NCc1cc(C(F)(F)F)cc(C(F)(F)F)c1 [TY027, H-Tyr-D-Ala-Gly-Phe-Met-Pro-Leu-Trp-NH-3,5-Bzl(CF3)2]
δ opioid receptors (MVD)
  IC50: 0.0145 µM
[1]; Ki rNK1 vs Ki hNK1
  species difference between affinities at rNK1 and hNK1: 1100 fold
[4]; pH 7.4, 0.05 N HEPES buffer in 0.1 N NaCl solution
  solubility: < 0.2 µg/mL
μ opioid receptors (GPI); Table 16, electrically stimulated isolated tissue, read-out: Opioid agonist GPI (μ), IC50
  IC50: 490 ± 29 nM
μ opioid receptors (GPI); Table 22, electrically stimulated isolated tissue, read-out: Opioid agonist GPI (μ), IC50
  IC50: 490 ± 29 nM
μ opioid receptors (GPI); Table 30, read-out: GPI/LMMP Opioid(m) Agonist (IC50; nM)
  IC50: 488 nM
μ opioid receptors (GPI); [12]
  IC50: 488 nM
μ opioid receptors (GPI); electrically stimulated isolated tissue, read-out: GPI (μ), IC50
  IC50: 490 nM
[2]; [10]
  logD7.4: >4.0
[3]; Substance P antagonist, GPI, Ke (nM), Table 16, in the presence of 1 μM naloxone
  Kb: 10 ± 2.1 nM
Rat NK1 (rNK1) receptor; Table 29, read-out: Affinity rNK1 (Ki; nM)
  Ki: 7.27 nM

## CCCC[C@H](NC(=O)[C@H](Cc1ccccc1)NC(=O)CNC(=O)[C@@H](C)NC(=O)[C@@H](N)Cc1ccc(O)cc1)C(=O)N1CCC[C@H]1C(=O)NC(COC1OC(CO)C(O)C(O)C1O)C(=O)N[C@@H](Cc1c[nH]c2ccccc12)C(=O)NCc1cc(C(F)(F)F)cc(C(F)(F)F)c1 (stereo partly shown) [TY041]
[4]; Table 26, HEPES buffer pH 7.4
  solubility: < 1 µg/mL
[5]; [13]
  Emax: 42%
[5]; [14]
  Emax: 42%
[6]; [15]
  Emax: 62%
[6]; [16]
  Emax: 62%

## CC(C)C[C@H](NC(=O)[C@@H]1CCCN1C(=O)C(COC1OC(CO)C(O)C(O)C1O)NC(=O)[C@H](Cc1ccccc1)NC(=O)CNC(=O)[C@@H](C)NC(=O)[C@@H](N)Cc1ccc(O)cc1)C(=O)N[C@@H](Cc1c[nH]c2ccccc12)C(=O)NCc1cc(C(F)(F)F)cc(C(F)(F)F)c1 (stereo partly shown) [TY042]
[4]; Table 26, HEPES buffer pH 7.4
  solubility: 1.4 µg/mL (≈ 1.05 µM)
[3]; Table 39, at 10 nM
  GPI/LMMP SP Agonist (IC50; nM): none
[5]; [13]
  Emax: 28%
[5]; [14]
  Emax: 28%
[6]; [15]
  Emax: 47%
[6]; [16]
  Emax: 47%

## CCCC[C@H](NC(=O)[C@H](Cc1ccccc1)NC(=O)CNC(=O)[C@@H](C)NC(=O)[C@@H](N)Cc1ccc(O)cc1)C(=O)N[C@@H](COC1O[C@H](CO)[C@@H](O)[C@H](O)[C@H]1O)C(=O)N[C@@H](CC(C)C)C(=O)N[C@@H](Cc1c[nH]c2ccccc12)C(=O)NCc1cc(C(F)(F)F)cc(C(F)(F)F)c1 (stereo partly shown) [TY044]
δ opioid receptors (MVD)
  IC50: 0.018 µM
[1]
  Ki: 1.3 nM
[4]; Table 26, HEPES buffer pH 7.4
  solubility thermodynamic: < 1 µg/mL
[3]; [17]
  Kb: 18.4 nM
[5]; GTP binding rMOR EC50 (nM)
  EC50: 380 nM
[5]; read-out: GTP binding rMOR Emax
  Emax: 85%
[5]; read-out: GTP binding rMOR Emax (%)
  Emax: 85%
[7]
  Ki: 3.37 µM

## CCCC[C@H](NC(=O)[C@H](Cc1ccccc1)NC(=O)CNC(=O)[C@@H](C)NC(=O)[C@@H](N)Cc1ccc(O)cc1)C(=O)N1CCC[C@H]1C(=O)N[C@@H](CC(C)C)C(=O)N[C@@H](Cc1c[nH]c2ccccc12)C(=O)NCc1cc(C(F)(F)F)cc(C(F)(F)F)c1 [TY045]
δ opioid receptors (MVD)
  IC50: 0.0136 µM
[4]; Table 26, HEPES buffer pH 7.4
  solubility: < 1 µg/mL
μ opioid receptors (GPI); Table 24, read-out: GPI/LMMP Opioid (μ) Agonist (IC50; nM)
  IC50: 463 nM
μ opioid receptors (GPI); [12]
  IC50: 463 nM
[2]; Table 26, pH 7.4
  logD7.4: >3.0
[3]; [17]
  Kb: 40.8 nM
[6]; Table 24, read-out: GTP binding hDOR Emax (%)
  Emax: 125%
[6]; Table 39, read-out: GTP binding hDOR Emax
  Emax: 125%

## HTyrDAlaGlyPheNHNHTrpCbz [AA501]
MOR
  Ki: 80 nM
rNK1
  Ki: 5000 nM

## HTyrProPhePheGlyLeuMetNH2 (H-YPFFGLM-NH2) [ESP7]
MOR
  Ki: 218 nM
rNK1
  Ki: 289 nM

— patent publication US8026218B2, “Bifunctional analgesic compounds for opioid receptor agonists and neurokinin-1 receptor antagonists” (The University of Arizona, priority 2006, dated 2011)
